According to PubChem BioAssay AID1963869 (Molecular Pharmacology Branch, DTP, NCI, 2024):

Tested on: KRAS patient-derived spheroids with HUVEC/MSC, viability
Test: Anticancer human tumor 323965-272-R-J2-PDC patient-derived pancreatic carcinoma cell line growth inhibition [KRAS2]
Details: for IC50: curve of first compound; for viability, T/C: stronger effect = lower value; active means viability on the fitted dose curve at most 10% of control; inactive means the rest
Description: Multicellular complex tumor spheroid response to RAS pathway inhibitors in combination with a targeted agents in patient-derived cell lines with oncogenic KRAS variants from multiple cancer types
A high-throughput screen of multi-cell type tumor spheroids was designed to identify active combinations of targeted small molecules and KRAS pathway inhibitors. Complex spheroids include a stromal component modeled by human endothelial cells (HUVEC) and fibroblasts modeled by human mesenchymal stem cells (MSCs). The concentration ranges selected for each drug and investigational agent were based upon clinically achievable concentrations if the clinical Cmax of the agent was known.
Compounds. The drugs and investigational agents: BI-3406 (NSC825286), BAY-293 (NSC824723), batoprotafib (TNO155; NSC825523), sotorasib (AMG 510; NSC818433), MRTX1257 (NSC819558), elimusertib (BAY 1895344; NSC800525), molibresib (GSK525762; NSC774829), temuterkib (LY3214996; NSC803410), venetoclax (NSC766270), alisertib (NSC759677), olaparib (NSC753686), talazoparib (NSC767125), erdafitinib (NSC781556), ipatasertib (NSC767898), cabozantinib (NSC761068), nintedanib (NSC756659), abemaciclib (NSC768073), docetaxel (NSC628503), trametinib (NSC758246), and sapanisertib (NSC764658) were obtained from the National Cancer Institute (NCI) Developmental Therapeutics Program Chemical Repository. The FDA-approved anticancer drug set is available from the Developmental Therapeutics Program. […] The stock solutions were prepared in dimethyl sulfoxide (DMSO, Sigma-Aldrich, St. Louis, MO, cat. D2650) at 800-fold the tested concentration and stored at -70 degrees C prior to their use. All drugs and investigational agents were tested over a range starting from a high concentration at or near the clinical Cmax and decreasing in half-log increments. If the clinical Cmax for an agent had not been determined, the highest concentration tested was 10 microM.
Cell Culture. All cells were maintained in an incubator at 37 degrees C and 5% CO2 with 95% humidity. The PDC lines were cultured according to standard operating procedures established by the NCI PDMR (https://pdmr.cancer.gov/sops/default.htm). Briefly, all PDCs were thawed and cultured in Matrigel-coated flasks prepared with a working solution of 1X Ham's F-12 nutrient mix, without supplementation (Invitrogen, Waltham, MA, cat. 11765054), 100 U/mL penicillin-streptomycin (Invitrogen, cat. 15140122), and 2.5% Matrigel (Corning Inc., Corning, NY, cat. 354248) for the first three passages. All PDCs were cultured in complete DMEM/F-12 media containing advanced DMEM/F-12 (Invitrogen, cat. 12634028), 4.9% defined fetal bovine serum, heat inactivated (HyClone Laboratories Inc., Logan, UT, cat. SH30070.03HI), 389 ng/mL hydrocortisone (Sigma-Aldrich, cat. H4001), 9.7 ng/mL human EGF recombinant protein (Invitrogen, cat. PHG0313), 23.4 microg/mL adenine (Sigma-Aldrich, cat. A2786), 97.3 U/mL penicillin-streptomycin (Invitrogen, cat. 15140122), 1.9 mM L-glutamine (Invitrogen, cat. 25030081), and 9.7 microM Y-27632 dihydrochloride (Tocris Bioscience, Bristol, United Kingdom, cat. 1254). The PDCs were cultured in complete DMEM/F12 media without 9.7 microM Y-27632 dihydrochloride for at least two passages prior to the screen. The established cell line HOP-62 was cultured in RPMI 1640 medium, HEPES (Invitrogen, cat. 22400105) with 10% defined fetal bovine serum (HyClone Laboratories Inc., cat. SH30070.03) and 2 mM L-glutamine (Invitrogen, cat. 25030081). The pooled donor HUVEC were cultured in endothelial cell growth medium 2 (PromoCell, Heidelberg, Germany, cat. C-22011) and the hMSC were cultured in mesenchymal stem cell growth medium 2 (PromoCell, cat. C-28009). For all experiments, HUVEC and hMSC were used at passages </=5, while the malignant cell lines were used at passages </=15. […]

[1] = second compound 0.1 µM, first compound 0.0316 µM
[2] = second compound 0.1 µM, first compound 0.1 µM
[3] = second compound 0.1 µM, first compound 0.316 µM
[4] = second compound 0.1 µM, first compound 1 µM
[5] = second compound 0.1 µM, first compound 3.16 µM
[6] = second compound 0.1 µM, first compound 10 µM
[7] = second compound 0.316 µM, first compound 0.0316 µM
[8] = second compound 0.316 µM, first compound 0.1 µM
[9] = second compound 0.316 µM, first compound 0.316 µM
[10] = second compound 0.316 µM, first compound 1 µM
[11] = second compound 0.316 µM, first compound 3.16 µM
[12] = second compound 0.316 µM, first compound 10 µM
[13] = second compound 1 µM, first compound 0.0316 µM
[14] = second compound 1 µM, first compound 0.1 µM
[15] = second compound 1 µM, first compound 0.316 µM
[16] = second compound 1 µM, first compound 1 µM
[17] = second compound 1 µM, first compound 3.16 µM
[18] = second compound 1 µM, first compound 10 µM
[19] = second compound 3.16 µM, first compound 0.0316 µM
[20] = second compound 3.16 µM, first compound 0.1 µM
[21] = second compound 3.16 µM, first compound 0.316 µM
[22] = second compound 3.16 µM, first compound 1 µM
[23] = second compound 3.16 µM, first compound 3.16 µM
[24] = second compound 3.16 µM, first compound 10 µM
[25] = second compound 10 µM, first compound 0.0316 µM
[26] = second compound 10 µM, first compound 0.1 µM
[27] = second compound 10 µM, first compound 0.316 µM
[28] = second compound 10 µM, first compound 1 µM
[29] = second compound 10 µM, first compound 3.16 µM
[30] = second compound 10 µM, first compound 10 µM
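Further: spheroids exposed to agents for 7 days.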

CCNC(=O)CC1N=C(c2ccc(Cl)cc2)c2cc(OC)ccc2-n2c(C)nnc21 (stereo not given) + COc1cc2nc(C)nc(NC(C)c3cc(N)cc(C(F)(F)F)c3)c2cc1OC1CCOC1
189 nM: IC50 (second compound 3.16 µM)
238 nM: IC50 (second compound 1 µM)
246 nM: IC50 (second compound 0.316 µM)
inactive: viability, T/C [1] 80.3% | viability, T/C [2] 68.8% | viability, T/C [3] 44.2% | viability, T/C [4] 34.2% | viability, T/C [5] 30.3% | viability, T/C [6] 28.9% | viability, T/C [7] 69.8% | viability, T/C [8] 64.2% | viability, T/C [9] 45.4% | viability, T/C [10] 32.5% | viability, T/C [11] 26.8% | viability, T/C [12] 25.2% | viability, T/C [13] 76.3% | viability, T/C [14] 65.3% | viability, T/C [15] 44.8% | viability, T/C [16] 32% | viability, T/C [17] 30.2% | viability, T/C [18] 25.5% | viability, T/C [19] 74.5% | viability, T/C [20] 58.8% | viability, T/C [21] 43.9% | viability, T/C [22] 29.3% | viability, T/C [23] 26.2% | viability, T/C [24] 26.6% | viability, T/C [25] 72.8% | viability, T/C [26] 60.4% | viability, T/C [27] 37.7% | viability, T/C [28] 29% | viability, T/C [29] 28% | viability, T/C [30] 25.7%
170 nM: IC50 (second compound 10 µM)
247 nM: IC50 (second compound 0.1 µM)

CC1(C)CCC(CN2CCN(c3ccc(C(=O)NS(=O)(=O)c4ccc(NCC5CCOCC5)c([N+](=O)[O-])c4)c(Oc4cnc5[nH]ccc5c4)c3)CC2)=C(c2ccc(Cl)cc2)C1 + CC1OCC2(CCN(c3cnc(Sc4ccnc(N)c4Cl)c(N)n3)CC2)C1N
1380 nM: IC50 (second compound 0.1 µM)
< 31.6 nM: IC50 (second compound 1 µM) | IC50 (second compound 3.16 µM) | IC50 (second compound 10 µM)
1070 nM: IC50 (second compound 0.316 µM)
inactive: viability, T/C [1] 81.6% | viability, T/C [2] 74.7% | viability, T/C [3] 78% | viability, T/C [4] 65.3% | viability, T/C [5] 10.1% | viability, T/C [7] 56.9% | viability, T/C [8] 63.4% | viability, T/C [9] 49.9% | viability, T/C [10] 53% | viability, T/C [13] 43.9% | viability, T/C [14] 45.9% | viability, T/C [15] 40.5% | viability, T/C [16] 34% | viability, T/C [19] 37.3% | viability, T/C [20] 32.7% | viability, T/C [21] 26.6% | viability, T/C [22] 20.2% | viability, T/C [25] 24.6% | viability, T/C [26] 24.5% | viability, T/C [27] 25.4% | viability, T/C [28] 20.9%
active: viability, T/C [6] 3.29% | viability, T/C [11] 6.85% | viability, T/C [12] 2.39% | viability, T/C [17] 5.15% | viability, T/C [18] 1.19% | viability, T/C [23] 4.11% | viability, T/C [24] 1.21% | viability, T/C [29] 2.63% | viability, T/C [30] 0.27%

CC1COCCN1c1cc(-c2ccnn2C)c2ccnc(-c3ccn[nH]3)c2n1 (stereo not given) + C=CC(=O)N1CCN(c2nc(OCC3CCCN3C)nc3c2CCN(c2cccc4cccc(C)c24)C3)CC1CC#N
inactive: viability, T/C (second compound 0.0316 µM, first compound 0.01 µM) 49.2% | viability, T/C (second compound 0.0316 µM, first compound 0.0316 µM) 26.8% | viability, T/C (second compound 0.0316 µM, first compound 0.1 µM) 18.7% | viability, T/C (second compound 0.0316 µM, first compound 0.316 µM) 16.4% | viability, T/C (second compound 0.0316 µM, first compound 1 µM) 13.9% | viability, T/C (second compound 0.0316 µM, first compound 3.16 µM) 12.6% | viability, T/C (second compound 0.1 µM, first compound 0.01 µM) 54.5% | viability, T/C [1] 27.4% | viability, T/C [2] 15.2% | viability, T/C [3] 14.8% | viability, T/C [4] 12.9% | viability, T/C [5] 12.1% | viability, T/C (second compound 0.316 µM, first compound 0.01 µM) 41.4% | viability, T/C [7] 21.7% | viability, T/C [8] 14% | viability, T/C [9] 12.2% | viability, T/C [10] 11.2% | viability, T/C [11] 10.6% | viability, T/C (second compound 1 µM, first compound 0.01 µM) 33% | viability, T/C [13] 18.2% | viability, T/C [14] 10.8% | viability, T/C [15] 11.1% | viability, T/C [16] 12.2% | viability, T/C [17] 11.8%
< 10 nM: IC50 (second compound 0.0316 µM) | IC50 (second compound 0.316 µM) | IC50 (second compound 1 µM) | IC50 (second compound 3.16 µM)
12 nM: IC50 (second compound 0.1 µM)
active: viability, T/C (second compound 3.16 µM, first compound 0.01 µM) 5.59% | viability, T/C [19] 4.03% | viability, T/C [20] 3.06% | viability, T/C [21] 1.93% | viability, T/C [22] 1.48% | viability, T/C [23] 2.61%

COC(=O)c1ccc2c(C(=Nc3ccc(N(C)C(=O)CN4CCN(C)CC4)cc3)c3ccccc3)c(O)[nH]c2c1 + COc1cc2nc(C)nc(NC(C)c3cc(N)cc(C(F)(F)F)c3)c2cc1OC1CCOC1
inactive: viability, T/C [1] 92.9% | viability, T/C [2] 102% | viability, T/C [3] 102% | viability, T/C [4] 106% | viability, T/C [5] 92.6% | viability, T/C [6] 86% | viability, T/C [7] 89.3% | viability, T/C [8] 81% | viability, T/C [9] 84.1% | viability, T/C [10] 78.8% | viability, T/C [11] 78.1% | viability, T/C [12] 74.6% | viability, T/C [13] 82.6% | viability, T/C [14] 73.2% | viability, T/C [15] 76.8% | viability, T/C [16] 74.6% | viability, T/C [17] 70.8% | viability, T/C [18] 68.9% | viability, T/C [19] 77.3% | viability, T/C [20] 77.6% | viability, T/C [21] 75.6% | viability, T/C [22] 81.5% | viability, T/C [23] 79.3% | viability, T/C [24] 75.7% | viability, T/C [25] 90.8% | viability, T/C [26] 86% | viability, T/C [27] 77.4% | viability, T/C [28] 72.8% | viability, T/C [29] 77.8% | viability, T/C [30] 69.7%
> 10000 nM: IC50 (second compound 0.1 µM) | IC50 (second compound 0.316 µM) | IC50 (second compound 1 µM) | IC50 (second compound 3.16 µM) | IC50 (second compound 10 µM)
